According to publication PMC2010749, “Cytotoxic and clastogenic effects of soluble and insoluble compounds containing hexavalent and trivalent chromium” (British Journal of Cancer, 1981):

Key:
[1] = test system: BHK 21 Syrian hamster fibroblast line; assay: DNA, RNA and protein syntheses in BHK cells, Cr compounds added directly to medium; assay type: cell-based; settings: 48 h in MEM
Experimental: (§1) Cell growth and labelling.-The reduction in cell growth, based on the nucleic acid content (DNA + RNA) of treated cultures, and the inhibition of DNA, RNA and protein syn- thesis, based on the incorporation of labelled precursors, were determined, to evaluate the cytotoxic effects of Cr compounds in BHK cell cultures. […] Three to four thousand cells were then examined for each dose level and each time interval, and the mitotic index (the ratio of all mitoses to the total number of cells) and the frequencies of each mitotic phase (the ratios of cells in each phase to total mitoses) were determined. […] Chromium compounds and cell treatments.- The tested compounds of Cr(VI) and Cr(III) and their physico-chemical properties are listed in Table I. In many experiments in which most of them were highly insoluble or only partially soluble (see Tables I, IV, V), Cr compounds were directly suspended in the growth medium used for treatments. […] The cytotoxic and clastogenic effects were usually deter- mined just at the end of Cr treatments, but sometimes the treated cells were washed with HBSS and incubated with normal growth medium, so that the effects of Cr were deter- mined at different times after the end of treatment (see Fig. 3 and Table VII).

[2] = test system: HEp-2 human epithelial-like line; settings: 2 h exposure to medium preincubated 2 days with 0.5 mg/ml in presence of BHK cells
Experimental: as §1

[3] = test system: BHK 21 Syrian hamster fibroblast line; assay: Cell growth of BHK cultures (DNA + RNA content), Cr compounds added directly to medium; assay type: cell-based; settings: 48 h in MEM
Experimental: (§2) Cell growth and labelling.-The reduction in cell growth, based on the nucleic acid content (DNA + RNA) of treated cultures, and the inhibition of DNA, RNA and protein syn- thesis, based on the incorporation of labelled precursors, were determined, to evaluate the cytotoxic effects of Cr compounds in BHK cell cultures. […] Three to four thousand cells were then examined for each dose level and each time interval, and the mitotic index (the ratio of all mitoses to the total number of cells) and the frequencies of each mitotic phase (the ratios of cells in each phase to total mitoses) were determined. […] Chromium compounds and cell treatments.- The tested compounds of Cr(VI) and Cr(III) and their physico-chemical properties are listed in Table I. In many experiments in which most of them were highly insoluble or only partially soluble (see Tables I, IV, V), Cr compounds were directly suspended in the growth medium used for treatments. In the experiments on the induction of chromosome aberrations and SCE in CHO cells, almost complete solubilization was obtained in N HCI for Cr(III) compounds and 0-5N NaOH for Cr(VI) compounds, after which they were diluted with MEM to the final concentrations specified in Table IX. […] The cytotoxic and clastogenic effects were usually deter- mined just at the end of Cr treatments, but sometimes the treated cells were washed with HBSS and incubated with normal growth medium, so that the effects of Cr were deter- mined at different times after the end of treatment (see Fig. 3 and Table VII).

rats = settings: s.c. in rats; 0% in the controls; ref Maltoni (1976); cited from earlier work
[4] = test system: CHO Chinese hamster fibroblast line; assay: Cell growth of CHO cultures (DNA + RNA content); assay type: cell-based; settings: 32 h in MEM
Experimental: as §1

[5] = test system: BHK 21 Syrian hamster fibroblast line; assay: DNA, RNA and protein syntheses in BHK monolayers exposed to filtered medium preincubated with Cr compounds; assay type: cell-based;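 also: DNA, RNA and protein synthesis in BHK cultures assessed by incorporation of labelled precursors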
Experimental: as §1

Salmonella = settings: ref Petrilli & De Flora (1978a,b) and De Flora (1981), cited from earlier work; for Mutagenicity in the plate test: dissolved in 0.5N NaOH
[6] = test system: bacteria and mammalian cells in culture; settings: 1979, De Flora, 1981, cited from earlier work
[7] = Solubility of chromium compounds (Table I)
Experimental: as §2

[8] = preincubated 48 h with 0.5 mg/ml, cells exposed 24 h
[9] = 0.5 mg/ml, preincubation 2 h, monolayers exposed 24 h
[10] = 0.5 mg/ml, preincubation 1 d, monolayers exposed 24 h
[11] = 0.5 mg/ml, preincubation 2 d, monolayers exposed 24 h
[12] = 0.5 mg/ml, preincubation 3 d, monolayers exposed 24 h
[13] = 0.5 mg/ml, preincubation 6 d, monolayers exposed 24 h
[14] = preincubated 48 h with 0.15/0.05 mg/ml (one value for both), cells exposed 24 h

## Chromium sulphate [Chromium alum]
[1]; 0.5 mg/ml
  DNA synthesis: 66 % of controls
  Protein synthesis: 96 % of controls
  RNA synthesis: 89 % of controls
[2]
  Mitotic block (% increase of abnormal metaphases 2-4 h after treatment): + (+ (<50%))
  Mitotic inhibition, early (% reduction of normal prophases at the end of treatment): _
  Mitotic inhibition, late (% reduction of normal prophases 24 h after treatment): + (+ (< 30%))
[3]; 0.5 mg/ml
  Cell growth: 88 % of controls
rats
  Frequency of sarcomas at the site of injection: 20-25%
[4]; 5 µg/ml
  Cell growth: 100 % control
[4]; 25 µg/ml
  Cell growth: 100 % control
[4]; 150 µg/ml
  Cell growth: 100 % control
[5]; [8]
  DNA synthesis, preinc. in MEM: 92 % of controls
  DNA synthesis, preinc. in MEM+BHK: 100 % of controls
  Protein synthesis, preinc. in MEM: 100 % of controls
  Protein synthesis, preinc. in MEM+BHK: 100 % of controls
  RNA synthesis, preinc. in MEM: 100 % of controls
  RNA synthesis, preinc. in MEM+BHK: 100 % of controls

## [O]=[Cr](=[O])([O-])[O-].[Pb+2] [lead chromate]
Salmonella
  Mutagenicity in the plate test: positive
[6]; fine suspension in water, ref Newbold et al.
  Mutagenicity for bacteria and mammalian cells in culture: inactive as a mutagen
[6]; solubilized in acids and alkalis, ref Nestmann et al.
  Point mutations in bacteria: induce point mutations

## O=S(=O)([O-])[O-].O=S(=O)([O-])[O-].O=S(=O)([O-])[O-].[Cr+3].[Cr+3] [Chromium sulphate]
[1]; 0.5 mg/ml
  DNA synthesis: 45 % of controls
  Protein synthesis: 69 % of controls
  RNA synthesis: 55 % of controls
[2]
  Mitotic block (% increase of abnormal metaphases 2-4 h after treatment): + (+ (<50%))
  Mitotic inhibition, early (% reduction of normal prophases at the end of treatment): + (+ (< 30%))
  Mitotic inhibition, late (% reduction of normal prophases 24 h after treatment): + (+ (< 30%))
[3]; 0.5 mg/ml
  Cell growth: 68 % of controls
[4]; 5 µg/ml
  Cell growth: 100 % control
[4]; 25 µg/ml
  Cell growth: 100 % control
[4]; 150 µg/ml
  Cell growth: 93 % control
[5]; [8]
  DNA synthesis, preinc. in MEM: 82 % of controls
  DNA synthesis, preinc. in MEM+BHK: 100 % of controls
  Protein synthesis, preinc. in MEM: 100 % of controls
  Protein synthesis, preinc. in MEM+BHK: 100 % of controls
  RNA synthesis, preinc. in MEM: 87 % of controls
  RNA synthesis, preinc. in MEM+BHK: 100 % of controls

## [Cl][Cr]([Cl])[Cl] [Chromium chloride]
[1]; 0.5 mg/ml
  DNA synthesis: 100 % of controls
  Protein synthesis: 100 % of controls
  RNA synthesis: 100 % of controls
[2]
  Mitotic block (% increase of abnormal metaphases 2-4 h after treatment): + (+ (<50%))
  Mitotic inhibition, early (% reduction of normal prophases at the end of treatment): ++ (+ + (30-70%))
  Mitotic inhibition, late (% reduction of normal prophases 24 h after treatment): + (+ (< 30%))
[3]; 0.5 mg/ml
  Cell growth: 100 % of controls
[4]; 50 µg/ml
  Cell growth: 95 % control
[7]
  Solubility in water: High
[5]; [8]
  DNA synthesis, preinc. in MEM: 100 % of controls
  DNA synthesis, preinc. in MEM+BHK: 100 % of controls
  Protein synthesis, preinc. in MEM: 100 % of controls
  Protein synthesis, preinc. in MEM+BHK: 100 % of controls
  RNA synthesis, preinc. in MEM: 100 % of controls
  RNA synthesis, preinc. in MEM+BHK: 100 % of controls

## [O]=[Cr](=[O])([O-])[O-].[O]=[Pb].[Pb+2] [Chromium orange, Basic lead chromate]
Salmonella
  Mutagenicity in the plate test: positive
  Mutagenicity in the spot test: mutagens
[1]; 0.05 mg/ml
  DNA synthesis: 43 % of controls
  Protein synthesis: 92 % of controls
  RNA synthesis: 84 % of controls
[1]; 0.15 mg/ml
  DNA synthesis: 11 % of controls
  Protein synthesis: 75 % of controls
  RNA synthesis: 53 % of controls
[1]; 0.5 mg/ml
  DNA synthesis: 0 % of controls
  Protein synthesis: 0 % of controls
  RNA synthesis: 0 % of controls
[2]
  Mitotic block (% increase of abnormal metaphases 2-4 h after treatment): ++ (+ + (50-100%))
  Mitotic inhibition, early (% reduction of normal prophases at the end of treatment): ++ (+ + (30-70%))
  Mitotic inhibition, late (% reduction of normal prophases 24 h after treatment): +++ (+ + + (> 70%))
[3]; 0.05 mg/ml
  Cell growth: 72 % of controls
[3]; 0.15 mg/ml
  Cell growth: 41 % of controls
[3]; 0.5 mg/ml
  Cell growth: 0 % of controls
rats
  Frequency of sarcomas at the site of injection: 65-90%
[4]; 5 µg/ml
  Cell growth: 100 % control
[4]; 25 µg/ml
  Cell growth: 93 % control
[4]; 150 µg/ml
  Cell growth: 56 % control
[7]
  Solubility in water: Very low
[5]; [9]
  DNA synthesis, preinc. in MEM: 100 % of controls
  DNA synthesis, preinc. in MEM+BHK: 100 % of controls
  Protein synthesis, preinc. in MEM: 100 % of controls
  Protein synthesis, preinc. in MEM+BHK: 100 % of controls
  RNA synthesis, preinc. in MEM: 100 % of controls
  RNA synthesis, preinc. in MEM+BHK: 100 % of controls
[5]; [10]
  DNA synthesis, preinc. in MEM: 84 % of controls
  DNA synthesis, preinc. in MEM+BHK: 95 % of controls
  Protein synthesis, preinc. in MEM: 100 % of controls
  Protein synthesis, preinc. in MEM+BHK: 100 % of controls
  RNA synthesis, preinc. in MEM: 100 % of controls
  RNA synthesis, preinc. in MEM+BHK: 100 % of controls
[5]; [11]
  DNA synthesis, preinc. in MEM: 54 % of controls
  DNA synthesis, preinc. in MEM+BHK: 86 % of controls
  Protein synthesis, preinc. in MEM: 92 % of controls
  Protein synthesis, preinc. in MEM+BHK: 100 % of controls
  RNA synthesis, preinc. in MEM: 85 % of controls
  RNA synthesis, preinc. in MEM+BHK: 96 % of controls
[5]; [12]
  DNA synthesis, preinc. in MEM: 47 % of controls
  DNA synthesis, preinc. in MEM+BHK: 78 % of controls
  Protein synthesis, preinc. in MEM: 100 % of controls
  Protein synthesis, preinc. in MEM+BHK: 100 % of controls
  RNA synthesis, preinc. in MEM: 81 % of controls
  RNA synthesis, preinc. in MEM+BHK: 100 % of controls
[5]; [13]
  DNA synthesis, preinc. in MEM: 21 % of controls
  DNA synthesis, preinc. in MEM+BHK: 52 % of controls
  Protein synthesis, preinc. in MEM: 78 % of controls
  Protein synthesis, preinc. in MEM+BHK: 92 % of controls
  RNA synthesis, preinc. in MEM: 66 % of controls
  RNA synthesis, preinc. in MEM+BHK: 72 % of controls
[5]; [8]
  DNA synthesis, preinc. in MEM: 62 % of controls
  DNA synthesis, preinc. in MEM+BHK: 100 % of controls
  Protein synthesis, preinc. in MEM: 100 % of controls
  Protein synthesis, preinc. in MEM+BHK: 100 % of controls
  RNA synthesis, preinc. in MEM: 93 % of controls
  RNA synthesis, preinc. in MEM+BHK: 100 % of controls
[5]; [14]
  DNA synthesis, preinc. in MEM: 100 % of controls
  DNA synthesis, preinc. in MEM+BHK: 100 % of controls
  Protein synthesis, preinc. in MEM: 100 % of controls
  Protein synthesis, preinc. in MEM+BHK: 100 % of controls
  RNA synthesis, preinc. in MEM: 100 % of controls
  RNA synthesis, preinc. in MEM+BHK: 100 % of controls
